Test results as given in patent US9771369B2, “Compounds and methods for kinase modulation, and indications therefor” (Plexxikon Inc., priority 2014, dated 2017).
pIC50: −log10 of the molar value.

Legend:
[1] = system: BaF3-FL KIT D816V or BaF3-FL KIT V560G/D816V cell line; experiment: Cell-based assays of c-Kit mutant kinase activity (cell proliferation, ATPlite); conditions: at least one of the c-kit cell assays of Example 7
Outline: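 BaF3 cells dependent on transfected full-length human KIT D816V or V560G/D816V (pCI-Neo, CMV promoter) were seeded at 1×10^4 cells/well and exposed to 8-point 1:3 dilutions from 10 μM top (0.2% DMSO) for three days at 37° C. ATPlite luminescence gave cell number; IC50 from concentration-response.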

[2] = molecular target: c-kit mutant D816V (Homo sapiens (Human), UniProt P10721, D816V/DEL694-753); experiment: c-Kit mutant D816V biochemical assay (AlphaScreen kinase activity)
Outline: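 AlphaScreen with streptavidin donor and PY30 acceptor beads read phosphotyrosine on biotin-(E4Y)10 substrate (30 nM). Enzyme: E. coli-expressed N-His c-Kit D816V, residues 551-934 lacking kinase insert 694-753. Reaction 30 min at room temperature, 10 μM ATP, 5% DMSO; IC50 fitted over 8 three-fold dilutions.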

Sequence of c-kit mutant D816V (P10721 other isoform, or with tags, fused parts or gaps D816V/del 694-753): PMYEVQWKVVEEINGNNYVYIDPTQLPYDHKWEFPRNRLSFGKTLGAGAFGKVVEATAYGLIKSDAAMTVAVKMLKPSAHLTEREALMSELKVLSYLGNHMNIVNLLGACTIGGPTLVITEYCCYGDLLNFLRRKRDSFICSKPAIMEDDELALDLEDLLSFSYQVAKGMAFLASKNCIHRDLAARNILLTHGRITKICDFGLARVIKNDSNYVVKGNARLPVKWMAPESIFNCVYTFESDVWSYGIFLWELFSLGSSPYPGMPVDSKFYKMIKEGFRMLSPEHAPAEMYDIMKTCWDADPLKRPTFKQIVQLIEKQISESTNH

SMILES | pIC50 [1] | IC50 [2] [µM]
COc1cc(-c2cc3c(N4CCC(c5nc(C)c(-c6cccc(OC(F)(F)F)c6)[nH]5)CC4)ncnc3[nH]2)ccn1 [P-3014, 6-(2-methoxy-4-pyridyl)-4-[4-[4-methyl-5-[3-(trifluoromethoxy)phenyl]-1H-imidazol-2-yl]-1-piperidyl]-7H-pyrrolo[2,3-d]pyrimidine] | > 5.00 | 0.0001 to 1
COc1ccc(-c2[nH]c(C3CCN(c4ncnc5[nH]c(-c6ccc(C#N)cc6)cc45)CC3)nc2C)cc1 [P-3015, 4-[4-[4-[5-(4-methoxyphenyl)-4-methyl-1H-imidazol-2-yl]-1-piperidyl]-7H-pyrrolo[2,3-d]pyrimidin-6-yl]benzonitrile] | > 5.00 | 0.0001 to 1
Cc1nc(C2CCN(c3ncnc4[nH]c(-c5ccc(C#N)cc5)cc34)CC2)[nH]c1-c1cccc(F)c1 [P-3016, 4-[4-[4-[5-(3-fluorophenyl)-4-methyl-1H-imidazol-2-yl]-1-piperidyl]-7H-pyrrolo[2,3-d]pyrimidin-6-yl]benzonitrile] | > 5.00 | 0.0001 to 1
COc1ccc(-c2[nH]c(C3CCN(c4ncnc5[nH]c(-c6ccnc(OC)c6)cc45)CC3)nc2C)cc1 [P-3017, 4-[4-[5-(4-methoxyphenyl)-4-methyl-1H-imidazol-2-yl]-1-piperidyl]-6-(2-methoxy-4-pyridyl)-7H-pyrrolo[2,3-d]pyrimidine] | > 5.00 | 0.0001 to 1
COc1ccc(-c2[nH]c(C3CCN(c4ncnc5[nH]c(-c6ccc(C#N)cc6)cc45)CC3)nc2C)cc1F [P-3018, 4-[4-[4-[5-(3-fluoro-4-methoxy-phenyl)-4-methyl-1H-imidazol-2-yl]-1-piperidyl]-7H-pyrrolo[2,3-d]pyrimidin-6-yl]benzonitrile] | > 5.00 | 0.0001 to 1
CCOc1ccc(-c2[nH]c(C3(C)CCN(c4ncnc5[nH]c(-c6ccc(OC)nc6)cc45)CC3)nc2C)cc1 [P-3171, 4-[4-[5-(4-ethoxyphenyl)-4-methyl-1H-imidazol-2-yl]-4-methyl-1-piperidyl]-6-(6-methoxy-3-pyridyl)-7H-pyrrolo[2,3-d]pyrimidine] | > 5.00 | 0.0001 to 1
COc1ccc(-c2[nH]c(C3(C)CCN(c4ncnc5[nH]c(-c6ccc(C#N)cc6)cc45)CC3)nc2C)cn1 [P-3172, 4-[4-[4-[5-(6-methoxy-3-pyridyl)-4-methyl-1H-imidazol-2-yl]-4-methyl-1-piperidyl]-7H-pyrrolo[2,3-d]pyrimidin-6-yl]benzonitrile] | > 5.00 | 0.0001 to 1
COc1ncc(-c2[nH]c(C3CCN(c4ncnc5[nH]c(-c6ccc(C#N)cc6)cc45)CC3)nc2C)cc1F [P-3173, 4-[4-[4-[5-(5-fluoro-6-methoxy-3-pyridyl)-4-methyl-1H-imidazol-2-yl]-1-piperidyl]-7H-pyrrolo[2,3-d]pyrimidin-6-yl]benzonitrile] | > 5.00 | 0.0001 to 1
Cc1nc(C2(C)CCN(c3ncnc4[nH]c(-c5cnn(C(F)F)c5)cc34)CC2)[nH]c1-c1ccc(Cl)cc1 [P-3175, 4-[4-[5-(4-chlorophenyl)-4-methyl-1H-imidazol-2-yl]-4-methyl-1-piperidyl]-6-[1-(difluoromethyl)pyrazol-4-yl]-7H-pyrrolo[2,3-d]pyrimidine] | > 5.00 | 0.0001 to 1
COc1ccc(-c2cc3c(N4CCC(C)(c5nc(C)c(-c6ccc(Cl)cc6)[nH]5)CC4)ncnc3[nH]2)cn1 [P-3176, 4-[4-[5-(4-chlorophenyl)-4-methyl-1H-imidazol-2-yl]-4-methyl-1-piperidyl]-6-(6-methoxy-3-pyridyl)-7H-pyrrolo[2,3-d]pyrimidine] | > 5.00 | 0.0001 to 1
Cc1nc(C2(C)CCN(c3ncnc4[nH]c(-c5ccc(C#N)cc5)cc34)CC2)[nH]c1-c1ccc(C(F)(F)F)cc1 [P-3177, 4-[4-[4-methyl-4-[4-methyl-5-[4-(trifluoromethyl)phenyl]-1H-imidazol-2-yl]-1-piperidyl]-7H-pyrrolo[2,3-d]pyrimidin-6-yl]benzonitrile] | > 5.00 | 0.0001 to 1
COc1ccc(-c2cc3c(N4CCC(C)(c5nc(C)c(-c6ccc(C(F)(F)F)cc6)[nH]5)CC4)ncnc3[nH]2)cn1 [P-3178, 6-(6-methoxy-3-pyridyl)-4-[4-methyl-4-[4-methyl-5-[4-(trifluoromethyl)phenyl]-1H-imidazol-2-yl]-1-piperidyl]-7H-pyrrolo[2,3-d]pyrimidine] | > 5.00 | 0.0001 to 1
Cc1nc(C2(C)CCN(c3ncnc4[nH]c(-c5cnn(C(F)F)c5)cc34)CC2)[nH]c1-c1ccc(C(F)(F)F)cc1 [P-3179, 6-[1-(difluoromethyl)pyrazol-4-yl]-4-[4-methyl-4-[4-methyl-5-[4-(trifluoromethyl)phenyl]-1H-imidazol-2-yl]-1-piperidyl]-7H-pyrrolo[2,3-d]pyrimidine] | > 5.00 | 0.0001 to 1
Cc1nc(C2(C)CCN(c3ncnc4[nH]c(-c5ccc(C#N)cc5)cc34)CC2)[nH]c1-c1ccc(Cl)cc1 [P-3180, 4-[4-[4-[5-(4-chlorophenyl)-4-methyl-1H-imidazol-2-yl]-4-methyl-1-piperidyl]-7H-pyrrolo[2,3-d]pyrimidin-6-yl]benzonitrile] | > 5.00 | 0.0001 to 1
COc1ncc(-c2[nH]c(C3(C)CCN(c4ncnc5[nH]c(-c6ccc(C#N)cc6)cc45)CC3)nc2C)cc1F [P-3181, 4-[4-[4-[5-(5-fluoro-6-methoxy-3-pyridyl)-4-methyl-1H-imidazol-2-yl]-4-methyl-1-piperidyl]-7H-pyrrolo[2,3-d]pyrimidin-6-yl]benzonitrile] | > 5.00 | 0.0001 to 1
COc1ccc(-c2[nH]c(C3(C)CCN(c4ncnc5[nH]c(-c6cnn(C(F)F)c6)cc45)CC3)nc2C)cn1 [P-3182, 6-[1-(difluoromethyl)pyrazol-4-yl]-4-[4-[5-(6-methoxy-3-pyridyl)-4-methyl-1H-imidazol-2-yl]-4-methyl-1-piperidyl]-7H-pyrrolo[2,3-d]pyrimidine] | > 5.00 | 0.0001 to 1
COc1ccc(-c2[nH]c(C3(C)CCN(c4ncnc5[nH]c(C)cc45)CC3)nc2C)cc1F [P-3183, 4-[4-[5-(3-fluoro-4-methoxy-phenyl)-4-methyl-1H-imidazol-2-yl]-4-methyl-1-piperidyl]-6-methyl-7H-pyrrolo[2,3-d]pyrimidine] | > 5.00 | 0.0001 to 1
Cc1cc2c(N3CCC(C)(c4nc(C)c(-c5ccc(C(F)F)cc5)[nH]4)CC3)ncnc2[nH]1 [P-3184, 4-[4-[5-[4-(difluoromethyl)phenyl]-4-methyl-1H-imidazol-2-yl]-4-methyl-1-piperidyl]-6-methyl-7H-pyrrolo[2,3-d]pyrimidine] | > 5.00 | 0.0001 to 1
COc1ncc(-c2nc(C3(C)CCN(c4ncnc5[nH]c(C)cc45)CC3)[nH]c2C)cc1F [P-3185, 4-[4-[4-(5-fluoro-6-methoxy-3-pyridyl)-5-methyl-1H-imidazol-2-yl]-4-methyl-1-piperidyl]-6-methyl-7H-pyrrolo[2,3-d]pyrimidine] | > 5.00 | 0.0001 to 1
COc1ccc(-c2nc(C3(C)CCN(c4ncnc5[nH]c(C)cc45)CC3)[nH]c2C)cn1 [P-3186, 4-[4-[4-(6-methoxy-3-pyridyl)-5-methyl-1H-imidazol-2-yl]-4-methyl-1-piperidyl]-6-methyl-7H-pyrrolo[2,3-d]pyrimidine] | > 5.00 | 0.0001 to 1
COc1ccc(-c2[nH]c(C3(C)CCN(c4ncnc5[nH]c(-c6cnn(C(F)F)c6)cc45)CC3)nc2C)cc1F [P-3187, 6-[1-(difluoromethyl)pyrazol-4-yl]-4-[4-[5-(3-fluoro-4-methoxy-phenyl)-4-methyl-1H-imidazol-2-yl]-4-methyl-1-piperidyl]-7H-pyrrolo[2,3-d]pyrimidine] | > 5.00 | 0.0001 to 1
COc1ccc(-c2cc3c(N4CCC(C)(c5nc(C)c(-c6ccc(OC)c(F)c6)[nH]5)CC4)ncnc3[nH]2)cn1 [P-3188, 4-[4-[5-(3-fluoro-4-methoxy-phenyl)-4-methyl-1H-imidazol-2-yl]-4-methyl-1-piperidyl]-6-(6-methoxy-3-pyridyl)-7H-pyrrolo[2,3-d]pyrimidine] | > 5.00 | 0.0001 to 1
Cc1nc(C2(C)CCN(c3ncnc4[nH]c(-c5cnn(C(F)F)c5)cc34)CC2)[nH]c1-c1ccc(C(F)F)cc1 [P-3189, 4-[4-[5-[4-(difluoromethyl)phenyl]-4-methyl-1H-imidazol-2-yl]-4-methyl-1-piperidyl]-6-[1-(difluoromethyl)pyrazol-4-yl]-7H-pyrrolo[2,3-d]pyrimidine] | > 5.00 | 0.0001 to 1
COc1ccc(-c2cc3c(N4CCC(C)(c5nc(C)c(-c6ccc(C(F)F)cc6)[nH]5)CC4)ncnc3[nH]2)cn1 [P-3190, 4-[4-[5-[4-(difluoromethyl)phenyl]-4-methyl-1H-imidazol-2-yl]-4-methyl-1-piperidyl]-6-(6-methoxy-3-pyridyl)-7H-pyrrolo[2,3-d]pyrimidine] | > 5.00 | 0.0001 to 1
Cc1cc2c(N3CCC(C)(c4nc(C)c(-c5cccc(OC(F)F)c5)[nH]4)CC3)ncnc2[nH]1 [P-3191, 4-[4-[5-[3-(difluoromethoxy)phenyl]-4-methyl-1H-imidazol-2-yl]-4-methyl-1-piperidyl]-6-methyl-7H-pyrrolo[2,3-d]pyrimidine] | > 5.00 | 0.0001 to 1
Cc1nc(C2(C)CCN(c3ncnc4[nH]c(-c5cnn(C(F)F)c5)cc34)CC2)[nH]c1-c1cccc(OC(F)F)c1 [P-3192, 4-[4-[5-[3-(difluoromethoxy)phenyl]-4-methyl-1H-imidazol-2-yl]-4-methyl-1-piperidyl]-6-[1-(difluoromethyl)pyrazol-4-yl]-7H-pyrrolo[2,3-d]pyrimidine] | > 5.00 | 0.0001 to 1
